Tests used:
[1] = system: hippocampal cytokine mRNA (Il1b, Il6, Tnfa, Il10); assay: Hippocampal cytokine mRNA (qRT-PCR) after co-injection of LPS and lumateperone; format: in vivo, mouse; conditions: mice, 2 h, relative change normalized to control (Dct method)
Description: All other reagents are obtained in the highest purity available from Sigma-Aldrich (St. Louis, MO) unless otherwise noted. […] Some rodents are given a cotreatment with a subcutaneous (SC) injection of lipopolysaccharide (LPS, 500 μg/kg; Sigma-Aldrich, ref #0127:B8) diluted in 0.9% injectable saline while control group animals receive injections of all vehicles matching the experimental conditions. […] On day 2, either no injection for naïve rats, or saline or LPS is injected (1 mg/kg, SC).
Animals. Adult, male C57BL/6 mice weighing 28-30 grams at the time of the experiment are housed in groups of 4 or 5 in small cages. Adult, male Sprague-Dawley rats weighing 175-200 grams at the time of arrival after shipping are housed in pairs. All animals are housed under standard laboratory housing conditions with a 12-hour light/dark cycle and ad libitum access to food and water.
Tissue Collection. […] Rats are euthanized 18 hours after LPS injection for sample collection. Hippocampi from mice and rats are rapidly dissected under RNAse-free conditions and placed in 1.5 mL Eppendorf tubes. When appropriate, samples are snap frozen in liquid nitrogen prior to storage at −80° C. until further analysis. Trunk blood is collected from mice into serum collection tubes, allowed to clot at room temperature for 1 hour, then centrifuged at 1,500 g for 10 minutes at 4° C.
Quantitative Real-Time PCR. Mouse hippocampal tissue is homogenized with glass beads in 1 mL of TRIzol reagent using a BeadBeater (Biospec Products, Bartlesville, OK). Heavy phase-lock gel tubes enabled separation of phases following the addition of 400 μL chloroform to the sample and centrifugation at 12,000 rpm for 10 minutes at room temperature. RNA is extracted using Qiagen Rneasy kit (Qiagen, Hilden, Germany). For cDNA synthesis, 2 μg of total RNA is used (SuperScript IV Reverse Transcriptase; ThermoFisher Scientific, Waltham, MA). The purity and concentration of RNA is measured with a Nanodrop spectrophotometer; the optical density (OD) 260/280 and OD 260/230 are within 1.8-2.3. In the hippocampus, 4 key markers of pro- and anti-inflammatory cytokines and chemokines (Il1b: ID Mm00434228_m1, Tnfa: ID Mm00443258_m1, 116: ID Mm00446190_m1, and I110: ID Mm01288386_m1; ThermoFisher Scientific) are initially chosen for analysis (n=5-12 per group). In subsequent experiments, the transcripts for other markers of inflammation are chosen for analysis including Icam1 (ID Mm00516023_m1; a cell adhesion molecule involved in immune cell migration), Cldn5 (ID Mm00727012_s1; a tight junctions protein), colony stimulating factor 1 (Csf1: ID Mm00432686_m1; a factor that regulates microglia function) and its receptor Csf1r (ID Mm01266652_m1), and the nucleotide binding and oligomerization domain-like receptor family pyrin domain-containing 3 inflammasome complex (Nlrp3: Mm00840904_m1). Gapdh (ID Mm99999915_g1) is chosen as a housekeeping gene. QuantStudio 7 (ThermoFisher Scientific) is used for analyzing the plates (MicroAmp Optical 384-well plates; Applied Biosystems, Waltham, MA, and ThermoFisher Scientific) that are loaded with TaqMan Universal Master Mix II without uracil-DNA glycosylate in a 20 μl reaction volume using 100 ng cDNA per well. All mRNAs are measured by qRT-PCR on ABI Prism 7900HT system using TaqMan Gene Expression Assays. Ct values of genes of interest are normalized to that of the reference gene (Gapdh).
Specific cytokines are elevated in serum or plasma of patients with MDD and other psychiatric disorders. Here, the gene and protein expression of a subset of pro- and anti-inflammatory cytokines is measured in mouse brain in response to an inflammatory challenge using a single dose of LPS (500 μg/kg) to induce acute brain inflammation. […] The results are shown in Table 1A as relative change in mRNA levels for each cytokine gene (Il1b, Il6, Tnfa, Il10) normalized to the control group using the Dct method (n=5-12 per group): […]

[2] = system: hippocampal microglia mRNA (Il1b, Il6, Tnfa, Nlrp3, Csf1r); assay: mRNA (RT-qPCR) in microglia enriched from rat hippocampus after LPS; format: in vivo; conditions: rats, LPS 500 μg/kg; label LPS = LPS + vehicle, label Luma = Luma 3 mg/kg 16 h after LPS; microglia isolated +18 h; normalized to control (Dct)
Description: Microglia Enrichment. […] Brain tissue is then processed through a dounce homogenizer followed by passages through 16- and 20-gauge needles. One mL of medium A is added to wash cell suspension, which is passed through a […] cell strainer and kept on ice. Next, 6 mL of 100% Percoll solution (9 parts of Percoll [GE Healthcare, Chicago, IL] and 1 part of HBSS) is added to obtain a 75% Percoll solution. The 75% Percoll cell suspension is then underlaid a layer of 25% Percoll solution containing Phenol red, which has a layer of PBS on top. The discontinuous Percoll density gradient is layered as followed: 75%, 25%, and 0% isotonic Percoll (PBS) to isolate hippocampal microglia. The gradients are then centrifuged at 4° C. for 25 minutes at 3,000 rpm in swinging buckets with minimal acceleration and deceleration and no brake. After centrifugation, the top layer containing myelin and debris (interface PBS/25% Percoll) is removed and the cellular layer at the 25%/75% interphase is collected and washed. Pilot experiments compare the gene expression of the different fractions and validated the presence of microglia in the interphase layer. The final pellet is resuspended in 350 μL of Buffer RLT from Qiagen microkit (Qiagen) to perform RNA extraction according to the manufacturer's instructions.
Exploratory experiments reveal that in microglia-enriched fractions from rat hippocampi, inflammation is returned closer to background levels at +26 hours after a dose of LPS. Thus, an earlier time point of +18 h after the LPS injection is selected to assess potential changes indicative of inflammation.
Hippocampi on both sides of the brain are collected 2 hours later (+18 hour from LPS injection) and microglia are rapidly isolated in an enriched fraction by Percoll gradient. RNA is extracted from the resulting, reconstituted cell pellet and RT-qPCR is performed. The results are shown in Table 7 as relative change in mRNA levels for each cytokine gene (Il1b, Il6, Tnfa, Nlrp3, Csf1r) normalized to the control group using the Dct method (n=8-12 per group): […]

[3] = Luma 0.3 mg/kg IP co-injected with LPS 500 μg/kg SC
[4] = Luma 3 mg/kg IP co-injected with LPS 500 μg/kg SC
[5] = Luma 8 mg/kg IP co-injected with LPS 500 μg/kg SC

| Molecule | Hippocampal cytokine mRNA expression IL-6 [1, 3] | Hippocampal cytokine mRNA expression IL-10 [1, 3] | Hippocampal cytokine mRNA expression TNF-alpha [1, 3] | Hippocampal cytokine mRNA expression IL-1b [1, 4] | Hippocampal cytokine mRNA expression IL-6 [1, 4] | Hippocampal cytokine mRNA expression TNF-alpha [1, 4] | Hippocampal cytokine mRNA expression IL-1b [1, 5] | Hippocampal cytokine mRNA expression IL-6 [1, 5] | Hippocampal cytokine mRNA expression TNF-alpha [1, 5] | Hippocampal microglial cytokine mRNA expression IL-1b [2] | Hippocampal microglial cytokine mRNA expression IL-6 [2] | Hippocampal microglial cytokine mRNA expression TNF-alpha [2] | Hippocampal microglial mRNA expression Csf1R [2] | Hippocampal microglial mRNA expression NLRP3 [2] | Hippocampal cytokine mRNA expression IL-1b ([1]; LPS 500 μg/kg SC + vehicle) | Hippocampal cytokine mRNA expression IL-6 ([1]; LPS 500 μg/kg SC + vehicle) | Hippocampal cytokine mRNA expression IL-10 ([1]; LPS 500 μg/kg SC + vehicle) | Hippocampal cytokine mRNA expression TNF-alpha ([1]; LPS 500 μg/kg SC + vehicle) |
| --- | --- | --- | --- | --- | --- | --- | --- | --- | --- | --- | --- | --- | --- | --- | --- | --- | --- | --- |
| CN1CCN2c3c(cccc31)[C@@H]1CN(CCCC(=O)c3ccc(F)cc3)CC[C@@H]12 [Luma, lumateperone] | 0.52 | −0.28 | 0.43 | 0.85 | 0.15 | −0.09 | 0.43 | 0.16 | −0.24 | 0.38 | −0.22 | −1.00 | −0.05 | −0.48 |  |  |  |  |
| lipopolysaccharide [LPS, reference compound] |  |  |  |  |  |  |  |  |  | 2.82 | 0.89 | −0.28 | 0.50 | 0.71 | 2.88 | 1.03 | 0.43 | 1.75 |
